Experimental data reported in US5968910A, “Compositions containing two or three inhibitors of different HIV reverse transcriptases” (priority 1994, dated 1999).
≈ marks a conversion by molar mass, not a printed value. Read-outs that look alike come from different tables or passages of the source.

Key:
[1] = tested on: HIV-1/TIBO R82150 (100-Ile); conditions: background, Balzarini I/II; cited from earlier work
[2] = tested on: HIV-1/II(0.1) 100-Ile; experiment: Sensitivity of mutant HIV-1 strain in CEM cell cultures; format: cell-based; conditions: Human immunodeficiency virus 1, CCRF-CEM; Table 5; read-out: EC50
Procedure: (§1) CEM cells were suspended at 250,000 cells per ml of culture medium and infected with wild-type HIV-I(IIIB) or mutant HIV-1 strains at 100 50% cell culture infective doses per ml. Then 100 μl of the infected cell suspensions was added to 200-μl microtiter plate wells containing 100 μl of an appropriate dilution of the test compounds. After 4 days incubation at 37° C., the cell cultures were examined for syncytium formation.

[3] = tested on: HIV-1/TSAO-m^3 T (138-Lys); experiment: as above; format: cell-based; conditions: Human immunodeficiency virus 1, CCRF-CEM; CEM cells, Table 1; read-out: 50% Effective Concentration
Procedure: as §1

[4] = tested on: HIV-1/Pyr (181-Cys); experiment: as above; format: cell-based; conditions: Human immunodeficiency virus 1, CCRF-CEM; CEM cells, Table 1; read-out: 50% Effective Concentration
Procedure: as §1

[5] = tested on: HIV-1/B 101Glu; experiment: as above; format: cell-based; conditions: Human immunodeficiency virus 1, CCRF-CEM; Table 5; read-out: EC50
Procedure: as §1

[6] = tested on: HIV-1/TIBO R82150 (100-Ile); experiment: as above; format: cell-based; conditions: Human immunodeficiency virus 1, CCRF-CEM; CEM cells, Table 1; read-out: 50% Effective Concentration
Procedure: as §1

[7] = tested on: HIV-1/I(0.1) 103-Asn; experiment: as above; format: cell-based; conditions: Human immunodeficiency virus 1, CCRF-CEM; Table 5; read-out: EC50
Procedure: as §1

[8] = tested on: HIV-1/III(0.1) 103-Asn; experiment: as above; format: cell-based; conditions: Human immunodeficiency virus 1, CCRF-CEM; Table 5; read-out: EC50
Procedure: as §1

[9] = tested on: HIV-1/TIBO R82913 (103-Asn); experiment: as above; format: cell-based; conditions: Human immunodeficiency virus 1, CCRF-CEM; CEM cells, Table 1; read-out: 50% Effective Concentration
Procedure: as §1

[10] = tested on: HIV-1/V(0.5) 103-Asn; experiment: as above; format: cell-based; conditions: Human immunodeficiency virus 1, CCRF-CEM; Table 5; read-out: EC50
Procedure: as §1

[11] = tested on: HIV-1/V(0.1) 101-Ile + 141-Glu; experiment: as above; format: cell-based; conditions: Human immunodeficiency virus 1, CCRF-CEM; Table 5; read-out: EC50
Procedure: as §1

[12] = tested on: HIV-1/Nev (106-Ala); experiment: as above; format: cell-based; conditions: Human immunodeficiency virus 1, CCRF-CEM; CEM cells, Table 1; read-out: 50% Effective Concentration
Procedure: as §1

[13] = biological target: HIV-1 RT (WT) (Human immunodeficiency virus type 1 group M subtype B, UniProt P03366); experiment: biochemical; conditions: IC50, anti-HIV-1 RT (WT) activity
Procedure: The reaction mixture (50 μl) contained 50 mM Tris.HCl, pH 7.8, 5 mM dithiothreitol, […] glutathione, 500 μM EDTA, 150 mM KCl, 5 mM MgCl2, 1.25 μg of bovine serum albumin, a fixed concentration of the labeled substrate [2,8-^3 H]dGTP (2.95 μM, 2 μCi), a fixed concentration of the template/primer poly(C).oligo(dG) (0.1 mM), 0.06% Triton X-100, 5 μl of inhibitor solution [containing various concentrations (5-fold dilutions) of the test compounds], and 5 μl of the RT preparation. The reaction mixtures were incubated at 37° C. for 30 min, at which time 100 μl of calf thymus DNA (150 μg/ml), 2 ml of Na4 P2 07 (0.1 M in 1M HCl), and 2 ml of trichloroacetic acid (10%, v/v) were added. The solutions were kept on ice for 30 min, after which the acid-insoluble material was washed and analyzed for radioactivity.
Compounds I, III, IV and V were evaluated for their inhibitory effect on recombinant HIV-1 RT.

[14] = tested on: HIV-1(IIIB) (WT); experiment: microbe, parasite or virus in culture; format: cell-based; conditions: Human immunodeficiency virus 1, IIIB, CCRF-CEM
Procedure: as §1

Row | Compound | resistance of HIV-1 strains containing the 100 Leu→Ile mutation in their RT [1] | EC50 [2] [µg/mL] | EC50 [3] [µg/mL] | EC50 [4] [µg/mL] | EC50 [5] [µg/mL] | EC50 [6] [µg/mL] | EC50 [7] [µg/mL] | EC50 [8] [µg/mL] | EC50 [9] [µg/mL] | EC50 [10] [µg/mL] | EC50 [11] [µg/mL] | EC50 [12] [µg/mL] | IC50 [13] [nM] | EC50 ([14]; CEM cells, Table 1, read-out: 50% Effective Concentration) [µg/mL] | EC50 ([14]; HIV-1 (III8), Table 5, read-out: EC50) [µg/mL]
1 | CC(C)=CCN1Cc2cccc3[nH]c(=S)n(c23)C[C@@H]1C [Compound R82150] | resistant |  |  |  |  |  |  |  |  |  |  |  |  |  | 
2 | CC(C)=CCN1Cc2cc(Cl)cc3[nH]c(=S)n(c23)C[C@@H]1C [TIBO R82913, reference compound] | resistant | ≥ 5 | 0.3 (≈ 0.932 µM) | 2 (≈ 6.21 µM) | > 2.5 | 1.75 (≈ 5.44 µM) | 1.1 (≈ 3.42 µM) | 0.23 (≈ 0.715 µM) | 4.3 (≈ 13.4 µM) | 5 (≈ 15.5 µM) | 0.16 (≈ 0.497 µM) | 0.5 (≈ 1.55 µM) | 2050 | 0.016 (≈ 0.0497 µM) | 0.02 (≈ 0.0621 µM)
